# Reference: patent US20230203004A1, “RSV INHIBITING 3-SUBSTITUTED QUINOLINE AND CINNOLINE DERIVATIVES” (Janssen Sciences Ireland Unlimited Company, priority 2020, published 2023)
# Where two headings read alike, the source gives them in different places.
# Key:
# rgRSV224 virus = assay: Antiviral activity: rgRSV224 (GFP) replication in HeLa cells; format: cell-based, respiratory syncytial virus (RSV)
# Outline: (§1)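 Over 3 days at 37 °C, compound titrations (4-fold steps, nine dilutions) were tested on HeLa cells infected with rgRSV224 (MOI = 1), inhibition of GFP signal giving EC50. In parallel plates, ATP content of HeLa cells after 3-day exposure defined CC50.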
# [1] = Cytotoxicity in HeLa cells (ATP content, ATPlite kit); format: cell-based; details: human
# Outline: as §1
# [2] = human respiratory syncytial virus, HeLa, 72 h, read-out: RSV HELA EC50, HeLa cells, rgRSV224 MOI = 1, GFP expression three days post-virus exposure, averaged data of several repeat experiments
# [3] = read-out: RSV HELA EC50, HeLa cells, rgRSV224 MOI = 1, GFP expression three days post-virus exposure, averaged data of several repeat experiments
smiles,measurement,setting,value
"COc1cc(C(=O)NC[C@](O)(c2nc(-c3ccc(F)cc3)c(F)c(C(C)(C)NC(C)=O)c2F)C(F)(F)F)cc2cc(C)nnc12 [compound 241, (-)-N-{2-[4-(2-Acetamidopropan-2-yl)-3,5-Difluoro-6-(4-Fluorophenyl)Pyridin-2-yl]-3,3,3-Trifluoro-2-Hydroxypropyl}-8-Methoxy-3-Methylcinnoline-6-Carboxamide]",EC50,rgRSV224 virus; [2],0.0015 µM
same,CC50 at 3 days,[1]; TOX HELA CC50,50 µM
"Cc1cc2cc(C(=O)NCC(O)(c3cc(C(C)(C)O)c(Cl)c(-c4ccc(F)cc4)n3)C(F)(F)F)cc(OC(F)(F)F)c2nn1 (single isomer, unassigned; (-)) [compound 261, (-)-N-{2-[5-Chloro-6-(4-Fluorophenyl)-4-(2-Hydroxypropan-2-yl)Pyridin-2-yl]-3,3,3-Trifluoro-2-Hydroxypropyl}-3-Methyl-8-(Trifluoromethoxy)Cinnoline-6-Carboxamide]",EC50,rgRSV224 virus; [2],0.013 µM
same,CC50 at 3 days,[1]; TOX HELA CC50,13 µM
"COc1cc(C(=O)NC[C@](O)(c2cc(C(C)(C)O)c(Cl)c(-c3ccc(F)cc3)n2)C(F)(F)F)cc2cc(C)cnc12 [compound 200, (-)-N-{2-[5-Chloro-6-(4-Fluorophenyl)-4-(2-Hydroxypropan-2-yl)Pyridin-2-yl]-3,3,3-Trifluoro-2-Hydroxypropyl}-8-Methoxy-3-Methylquinoline-6-Carboxamide]",EC50,rgRSV224 virus; [2],0.0017 µM
same,CC50 at 3 days,[1]; TOX HELA CC50,22 µM
COc1cc(C(=O)NC[C@](O)(c2nc(-c3ccc(F)cc3)c(F)c(C(C)(C)O)c2F)C2CC2)cc2cc(C(F)F)nnc12 [compound 287],EC50,rgRSV224 virus; [2],0.0089 µM
same,CC50 at 3 days,[1]; TOX HELA CC50,37 µM
COc1cc(C(=O)NC[C@](O)(c2nc(-c3ccc(F)cc3)c(Cl)c(C(C)(C)O)c2F)C(F)(F)F)cc2cc(C)cnc12 [compound 202],EC50,rgRSV224 virus; [2],0.0048 µM
same,CC50 at 3 days,[1]; TOX HELA CC50,46 µM
"COc1cc(C(=O)NC[C@](O)(c2cc(C(C)(C)O)c(F)c(-c3ccc(F)cc3)n2)C(F)F)cc2cc(C3CC3)nnc12 [compound 293, (-)Cyclopropyl-N-(3,3-Difluoro-2-(5-Fluoro-6-(4-Fluorophenyl)-4-(2-Hydroxypropan-2-yl)Pyridin-2-yl)-2-Hydroxypropyl)-8-Methoxycinnoline-6-Carboxamide]",EC50,rgRSV224 virus; [2],0.011 µM
same,CC50 at 3 days,[1]; TOX HELA CC50,15 µM
"COc1cc(C(=O)NC[C@](O)(c2cc(C(C)(C)O)c(F)c(-c3ccc(F)cc3)n2)C(F)(F)F)cc2cc(CF)cnc12 [compound 324, (-)(Fluoromethyl)-8-Methoxy-N-(3,3,3-Trifluoro-2-(5-Fluoro-6-(4-Fluorophenyl)-4-(2-Hydroxypropan-2-yl)Pyridin-2-yl)-2-Hydroxypropyl)Quinoline-6-Carboxamide]",EC50,rgRSV224 virus; [2],0.012 µM
same,CC50 at 3 days,[1]; TOX HELA CC50,4 µM
Cc1cnc2c(OC3CC3)cc(C(=O)NC[C@](O)(c3cc(C(C)(C)O)c(F)c(-c4ccc(C(F)(F)F)cc4)n3)C3CC3)cc2c1 [compound 224],EC50,rgRSV224 virus; [2],0.0017 µM
same,CC50 at 3 days,[1]; TOX HELA CC50,15 µM
"COc1cc(C(=O)NC[C@](O)(c2nc(-c3ccc(F)cc3)c(Cl)c(C(C)(C)O)c2F)C(F)(F)F)cc2cc(C)c(F)nc12 [compound 212, (-)-N-{2-[5-Chloro-3-Fluoro-6-(4-Fluorophenyl)-4-(2-Hydroxypropan-2-yl)Pyridin-2-yl]-3,3,3-Trifluoro-2-Hydroxypropyl}-2-Fluoro-8-Methoxy-3-Methylquinoline-6-Carboxamide]",EC50,rgRSV224 virus; [2],0.0071 µM
same,CC50 at 3 days,[1]; TOX HELA CC50,58 µM
"Cc1cc2cc(C(=O)NC[C@](O)(c3cc(C(C)(C)O)cc(-c4ccc(F)cc4)n3)C(F)(F)F)cc(OC3CC3)c2nn1 [compound 291, (-)Cyclopropoxy-3-Methyl-N-(3,3,3-Trifluoro-2-(6-(4-Fluorophenyl)-4-(2-Hydroxypropan-2-yl)Pyridin-2-yl)-2-Hydroxypropyl)Cinnoline-6-Carboxamide]",EC50,rgRSV224 virus; [2],0.015 µM
same,CC50 at 3 days,[1]; TOX HELA CC50,57 µM
COc1cc(C(=O)NC[C@](O)(c2cc(C(C)(C)O)c(F)c(-c3ccc(F)cc3)n2)C2(F)CC2)cc2cc(C)nnc12 [compound 296],EC50,rgRSV224 virus; [2],0.002 µM
same,CC50 at 3 days,[1]; TOX HELA CC50,56 µM
"COc1cc(C(=O)NC[C@](O)(c2cc(C(C)(C)O)c(F)c(-c3ccc(F)cc3)n2)C2CC2)cc2cc(C)nnc12 [compound 252, (-)-N-{2-Cyclopropyl-2-[5-Fluoro-6-(4-Fluorophenyl)-4-(2-Hydroxypropan-2-yl)Pyridin-2-yl]-2-Hydroxyethyl}-8-Methoxy-3-Methylcinnoline-6-Carboxamide]",EC50,rgRSV224 virus; [2],0.0003 µM
same,EC50,"rgRSV224 virus; human respiratory syncytial virus, HeLa, comparison table 5.3, antiviral RSV assay of Example 5.1",0.0003 µM
same,CC50 at 3 days,[1]; CC50,38 µM
same,CC50 at 3 days,[1]; TOX HELA CC50,43 µM
"COc1cc(C(=O)NC[C@](O)(c2cc(C(C)(C)O)c(F)c(-c3ccc(F)cc3)n2)C(F)(F)F)cc2cc(C(F)F)nnc12 [compound 266, (-)(Difluoromethyl)-8-Methoxy-N-{3,3,3-Trifluoro-2-[5-Fluoro-6-(4-Fluorophenyl)-4-(2-Hydroxypropan-2-yl)Pyridin-2-yl]-2-Hydroxypropyl}Cinnoline-6-Carboxamide]",EC50,rgRSV224 virus; [2],0.0035 µM
same,CC50 at 3 days,[1]; TOX HELA CC50,25 µM
"COc1cc(C(=O)NC[C@@](O)(c2cc(C(C)(C)O)cc(-c3ccc(F)cc3)n2)C(C)(F)F)cc2cc(C)nnc12 [compound 310, (+)-N-(3,3-difluoro-2-(6-(4-fluorophenyl)-4-(2-hydroxypropan-2-yl)pyridin-2-yl)-2-hydroxybutyl)-8-methoxy-3-methylcinnoline-6-carboxamide]",EC50,rgRSV224 virus; [2],> 1.25 µM
same,CC50 at 3 days,[1]; TOX HELA CC50,55 µM
"COc1cc(C(=O)NC[C@](O)(c2cc(C(C)(C)O)c(F)c(-c3ccc(F)cc3)n2)C(F)(F)F)cc2cc(C3CC3)cnc12 [compound 321, (-)Cyclopropyl-8-Methoxy-N-(3,3,3-Trifluoro-2-(5-Fluoro-6-(4-Fluorophenyl)-4-(2-Hydroxypropan-2-yl)Pyridin-2-yl)-2-Hydroxypropyl)Quinoline-6-Carboxamide]",EC50,rgRSV224 virus; [2],0.054 µM
same,CC50 at 3 days,[1]; TOX HELA CC50,13 µM
"COc1cc(C(=O)NCC(O)(c2cc(C(C)(C)O)c(F)c(-c3ccc(F)cc3)n2)C(F)F)cc2cc(C)c(F)nc12 (single isomer, unassigned; (+)) [compound 213, (+)-N-{3,3-Difluoro-2-[5-Fluoro-6-(4-Fluorophenyl)-4-(2-Hydroxypropan-2-yl)Pyridin-2-yl]-2-Hydroxypropyl}-2-Fluoro-8-Methoxy-3-Methylquinoline-6-Carboxamide]",EC50,rgRSV224 virus; [3],0.52 µM
same,CC50 at 3 days,[1]; TOX HELA CC50,31 µM
"COc1cc(C(=O)NC[C@](O)(c2cc(C(C)(C)O)c(Cl)c(-c3ccc(F)cc3)n2)C(F)(F)F)cc2cc(C)nnc12 [compound 232, (-)-N-{2-[5-Chloro-6-(4-Fluorophenyl)-4-(2-Hydroxypropan-2-yl)Pyridin-2-yl]-3,3,3-Trifluoro-2-Hydroxypropyl}-8-Methoxy-3-Methylcinnoline-6-Carboxamide]",EC50,rgRSV224 virus; [2],0.0016 µM
same,CC50 at 3 days,[1]; TOX HELA CC50,24 µM
COc1cc(C(=O)NC[C@@](O)(c2cc(C(C)(C)O)c(F)c(-c3ccc(F)cc3)n2)C2(F)CC2)cc2cc(C)nnc12 [compound 297],EC50,rgRSV224 virus; [2],0.058 µM
same,CC50 at 3 days,[1]; TOX HELA CC50,45 µM
"Cc1cnc2c(OC3CC3)cc(C(=O)NC[C@](O)(c3cc(C(C)(C)O)c(F)c(-c4ccc(F)cc4)n3)C3CC3)cc2c1 [compound 223, (-)-N-{2-Cyclopropyl-2-[5-Fluoro-6-(4-Fluorophenyl)-4-(2-Hydroxypropan-2-yl)Pyridin-2-yl]-2-Hydroxyethyl}-8-(Cyclopropyloxy)-3-Methylquinoline-6-Carboxamide]",EC50,rgRSV224 virus; [2],0.00063 µM
same,CC50 at 3 days,[1]; TOX HELA CC50,21 µM
"Cc1cc2cc(C(=O)NC[C@](O)(c3cc(C(C)(C)O)c(F)c(-c4ccc(F)cc4)n3)C(F)(F)F)cc(OC(F)F)c2nn1 [compound 312, (-)(Difluoromethoxy)-3-Methyl-N-(3.3.3-Trifluoro-2-(5-Fluoro-6-(4-Fluorophenyl)-4-(2-Hydroxypropan-2-yl)Pyridin-2-yl)-2-Hydroxypropyl)Cinnoline-6-Carboxamide]",EC50,rgRSV224 virus; [2],0.0028 µM
same,CC50 at 3 days,[1]; TOX HELA CC50,13 µM
"COc1cc(C(=O)NCC(O)(c2cc(C(C)(C)O)c(F)c(-c3ccc(F)cc3)n2)C(F)F)cc2cc(C)cnc12 (single isomer, unassigned; (+)) [compound 203, (+)-N-{3,3-Difluoro-2-[5-Fluoro-6-(4-Fluorophenyl)-4-(2-Hydroxypropan-2-yl)Pyridin-2-yl]-2-Hydroxypropyl}-8-Methoxy-3-Methylquinoline-6-Carboxamide]",EC50,rgRSV224 virus; [3],0.48 µM
same,CC50 at 3 days,[1]; TOX HELA CC50,43 µM
"COc1cc(C(=O)NC[C@@](O)(c2cc(C(C)(C)O)c(F)c(-c3ccc(F)cc3)n2)C(C)(F)F)cc2cc(C)nnc12 [compound 314, (+)-N-(3,3-difluoro-2-(5-fluoro-6-(4-fluorophenyl)-4-(2-hydroxypropan-2-yl)pyridin-2-yl)-2-hydroxybutyl)-8-methoxy-3-methylcinnoline-6-carboxamide]",EC50,rgRSV224 virus; [2],0.168 µM
same,CC50 at 3 days,[1]; TOX HELA CC50,35 µM
"COc1cc(C(=O)NC[C@](O)(c2cc(C(C)(C)O)c(F)c(-c3ccc(F)cc3)n2)C(C)C)cc2cc(C(F)F)nnc12 [compound 285, (S)(Difluoromethyl)-N-(2-(5-Fluoro-6-(4-Fluorophenyl)-4-(2-Hydroxypropan-2-yl)Pyridin-2-yl)-2-HydroxyMethylbutyl)-8-Methoxycinnoline-6-Carboxamide]",EC50,rgRSV224 virus; [2],0.0065 µM
same,CC50 at 3 days,[1]; TOX HELA CC50,16 µM
"COc1cc(C(=O)NC[C@@](O)(c2nc(-c3ccc(F)cc3)cc(C(C)(C)O)c2F)C(F)(F)F)cc2cc(C)nnc12 [compound 280, (+)Methoxy-3-Methyl-N-(3.3.3-Trifluoro-2-(3-Fluoro-6-(4-Fluorophenyl)-4-(2-Hydroxypropan-2-yl)Pyridm-2-yl)-2-Hydroxypropyl)Cinnoline-6-Carboxamide]",EC50,rgRSV224 virus; [2],0.449 µM
same,CC50 at 3 days,[1]; TOX HELA CC50,9.4 µM
